System: C26 cells
Assay: Metabolic activity of C26 cells after fatty acid pre-incubation and chemotherapy incubation
Assay type: cell-based, Murine
Settings: 4 days pre-incubation with 50 µM fatty acid, medium removed, compared to control, p< 0.0001 for EPA or DPA
Method: C = mice receiving control diet B, TB = tumor-bearing mice receiving control diet, TB-SNC = tumor-bearing mice receiving the specific nutritional combination.
Prior to chemotherapy incubations, C26 cells were pre-incubated for 4 days with EPA, DHA or DPA in a final concentration of 50 µM. To avoid direct interaction between fatty acids and chemotherapeutics, the medium containing fatty acids was removed before the addition of chemotherapy. The cells were incubated for 24 hr with the chemotherapeutics cisplatin and doxorubicin, after incubation the metabolic activity was measured.

## CC/C=C\C/C=C\C/C=C\C/C=C\C/C=C\C/C=C\CCC(=O)O [DHA, docosahexanoic acid]
Then 24 hr cisplatin
  metabolic activity after cisplatin treatment: no significant changes in metabolic activity
Then 24 hr doxorubicin
  metabolic activity of doxorubicin treated cells: no significant changes in metabolic activity
